Structures can show the parent of a compound that is named as a salt. Where two headings read alike, the source gives them in different places.
Columns and labels:
Format in all cases: cell-based
[1] = Cytotoxicity using T cells
HIV [2] = assay: Antiviral activity using T cells; conditions: Human immunodeficiency virus 1, T-cell
Method: (§1) HIV-1 infection assays with cell lines.
(§2) Laboratory strains of HIV-1, HIV-2, simian immunodeficiency virus, strains with know resistance to indicated drugs, or a low-passage (clinically derived) isolates are used to infect established cell lines by using a specific multiplicity of infection (MOI) of the virus for 1 hour at 37° C. prior to washing the cells and resuspension in medium containing increasing concentrations of drug (or test compound). At 4 to 6 days post-infection, drug-treated and control wells are analyzed for an HIV-1 induced cytopathic effect and/or for the presence of viral reverse transcriptase (RT) or viral p24 antigen in the culture medium (Buckheit and Swanstrom 1991; Ojwang et al. 1994, 1995a, Rando et al. 1995).

[3] = Cytotoxicity (table Antiviral Activity & Cytotoxicity); conditions: established cell lines
HIV-1 = assay: Antiviral activity (HIV-1 infection assays with cell lines); conditions: Human immunodeficiency virus 1
Method: as §1, §2

HIV [4] = assay: HIV infection assay in cell lines (MT-2, MT-4, Jurkat)
Method: as §1, §2

[5] = Cytotoxicity in MT-2 cells; conditions: human
Cytotoxicity in PBMCs = conditions: human
Method: (§3) Peripheral blood mononuclear cells (PBMCs), Core blood mononuclear cells (CBMCs) and peripheral blood lymphocytes (PBLs) are isolated from the blood of HIV-1 negative and hepatitis B virus-negative (healthy) donors by using the Ficoll-Hypaque density gradient centrifugation technique and are then cultured as described by Gartner and Popovic (1990).

HIV [6] = assay: HIV infection of PBMCs; conditions: Human immunodeficiency virus 1, PBMC, read-out: HIV IC50 (uM) PBMCs
Method: HIV-1 infection of PBMCs, CBMCs, and PBL.
as §3
PBMCs or CBMCs (2×10^5 cells/well) were infected with various isolates of HIV-1 at an MOI of 0.01. After 2 hours at 37C the cells are washed and treated with various concentrations of drug or test compound (Buckheit and Swanstrom 1991; Ojwang et al. 1995a). Seven days post-infection, HIV-1 replication was analyzed by the measuring the levels of RT or p24 in the culture medium.

[7] = antiviral activity, read-out: IC50
[8] = Human immunodeficiency virus 1, MT2, read-out: HIV IC50 (uM) MT-2
[9] = peripheral blood mononuclear cells (PBMCs), read-out: CC50 (uM) PBMCs

Which results are given for O=c1n(C2CO[C@H](CO)O2)ccc2nc(-c3ccc(F)cc3)cn12 (stereo in doubt) [Compound 43, 2-(4-FLUOROPHENYL)-6-[(2S,4S)-2- HYDROXYMETHYL-1,3-DIOXOLAN-4-YL]- 5,6-DIHYDRO[1,3]DIAZOLO[1,2- C][1,3]DIAZIN-5-ONE]?
CC50 [1]: > 100 µM; IC50 (HIV [2]): 0.31 µM

What does the source list for O=c1n([C@H]2CO[C@@H](CO)O2)cc(F)c2nc(-c3ccc(F)cc3)cn12 (stereo in doubt) [Compound 48]?
CC50 [1]: > 100 µM; CC50 [3]: > 100 µM; IC50 (HIV-1; [7]): 0.026 µM; IC50 (HIV [2]): 0.026 µM

Which results are given for O=c1n([C@@H]2CC[C@H](CO)O2)ccc2nc(-c3ccc([N+](=O)[O-])cc3)cn12 [Compound 31, 6-[(2S,5R)-5-HYDROXYMETHYL OXOLAN-2-YL]-2-(4-NITROPHENYL)-5,6- DIHYDRO[1,3]-DIAZOLO[1,2-C][1,3]DIAZIN-5-ONE]?
CC50 [1]: 45 µM; IC50 (HIV [2]): 9.7 µM

With O=c1n([C@H]2CC[C@@H](CO)O2)ccc2nc(-c3ccc([N+](=O)[O-])cc3)cn12 [Compound 32, 2-(4- NITROPHENYL)-6-[(2R,5S)-5- HYDROXYMETHYLOXOLAN-2-YL]-5,6- DIHYDRO[1,3]-DIAZOLO[1,2-C][1,3]DIAZIN-5-ONE] as the compound, how does the CC50 [1] read?
The CC50 was over 100 µM.

What about the IC50 (HIV [2]) of the same compound?
Its IC50 is 7 µM.

With O=c1n([C@@H]2CC[C@H](CO)O2)cc(F)c2nc(-c3ccc(F)cc3)cn12 [Compound 33, 8-FLUORO-2-(4-FLUOROPHENYL)-6- [(5R,2S)-5-HYDROXYMETHYL OXOLAN- 2-YL]-5,6-DIHYDRO[1,3]DIAZOLO[1,2- C][1,3]DIAZIN-5-ONE] as the compound, how does the CC50 [1] read?
The CC50 was 90 µM.

What about the IC50 (HIV [2]) of the same compound?
Its IC50 is 4 µM.

Which CC50 [1] does the source give for O=c1n([C@H]2CC[C@@H](CO)O2)cc(F)c2nc(-c3ccc([N+](=O)[O-])cc3)cn12 [Compound 36, 8-FLUORO-2-(4-NITROPHENYL)-6- [(2R,5S)-5-HYDROXYMETHYL OXOLAN- 2-YL]-5,6-DIHYDRO[1,3]-DIAZOLO[1,2- C][1,3]DIAZIN-5-ONE] here?
The CC50 was over 100 µM.

What about the IC50 (HIV [2]) of the same compound?
Its IC50 is 1 µM.

With O=c1n([C@H]2CO[C@@H](CO)O2)ccc2nc(-c3ccc(F)cc3)cn12 [Compound 44, 2-(4-FLUOROPHENYL)-6-[(2R,4R)-2- HYDROXYMETHYL-1,3-DIOXOLAN-4-YL]- 5,6-DIHYDRO[1,3]DIAZOLO[1,2- C][1,3]DIAZIN-5-ONE] as the compound, how does the CC50 [1] read?
The CC50 was over 100 µM.

What about the CC50 [3] of the same compound?
Its CC50 is over 100 µM.

And the IC50 (HIV-1; [7])?
The IC50 was 0.003 µM.

And the IC50 (HIV [2])?
Its IC50 is 0.0032 µM.

With O=c1n([C@@H]2CO[C@H](CO)O2)ccc2nc(-c3ccc([N+](=O)[O-])cc3)cn12 [Compound 45, L2-(4-NITROPHENYL)-6-[(2S,4S)-2- HYDROXYMETHYL-1,3-DIOXOLAN-4-YL]- 5,6-DIHYDRO[1,3]DIAZOLO[1,2- C][1,3]DIAZIN-5-ONE] as the compound, how does the CC50 [1] read?
Its CC50 is 10 µM.

And the IC50 (HIV [4]; [8])?
The IC50 was 3 µM.

And the CC50 [5]?
The CC50 was 2 µM.

What about the IC50 (HIV [2]) of the same compound?
The IC50 was 0.25 µM.

Which results are given for O=c1n([C@H]2CO[C@@H](CO)O2)ccc2nc(-c3ccc([N+](=O)[O-])cc3)cn12 [Compound 46, 2-(4-NITROPHENYL)-6-[(2R,4R)-2- HYDROXYMETHYL-1,3-DIOXOLAN-4-YL]- 5,6-DIHYDRO[1,3]DIAZOLO[1,2- C][1,3]DIAZIN-5-ONE]?
CC50 [1]: > 100 µM; CC50 [3]: > 100 µM; IC50 (HIV-1; [7]): 0.1 µM; IC50 (HIV [2]): 0.1 µM

Which results are given for O=c1n([C@@H]2CO[C@H](CO)O2)cc(F)c2nc(-c3ccc([N+](=O)[O-])cc3)cn12 [Compound 49]?
IC50 (HIV [4]; Human immunodeficiency virus 1, Jurkat, read-out: HIV IC50 (uM) Jurkat): 0.24 µM; IC50 (HIV [4]; [8]): 0.13 µM; IC50 (HIV [4]; Human immunodeficiency virus 1, MT4, read-out: HIV IC50 (uM) (MT-4)): 0.015 µM; CC50 [5]: 6.5 µM; CC50 (Cytotoxicity in PBMCs; [9]): < 10 µM; IC50 (HIV-1): 0.005 µM

With O=c1n([C@H]2CO[C@@H](CO)O2)cc(F)c2nc(-c3ccc([N+](=O)[O-])cc3)cn12 [Compound 50] as the compound, how does the CC50 [1] read?
The CC50 was over 100 µM.

And the IC50 (HIV [4]; [8])?
Its IC50 is 2.8 µM.

And the CC50 [5]?
Its CC50 is over 10 µM.

And the CC50 [3]?
Its CC50 is over 100 µM.

And the IC50 (HIV-1; [7])?
Its IC50 is 0.44 µM.

And the IC50 (HIV [2])?
The IC50 was 0.44 µM.

With O=c1n([C@H]2CO[C@H](CO)O2)ccc2nc(-c3ccc([N+](=O)[O-])cc3)cn12 [Compound 53] as the compound, how does the CC50 [1] read?
Its CC50 is over 10 µM.

What about the IC50 (HIV [2]) of the same compound?
The IC50 was 0.4 µM.

Which CC50 [1] does the source give for O=c1n([C@H]2CO[C@H](CO)O2)cc(F)c2nc(-c3ccc(F)cc3)cn12 [Compound 55] here?
The CC50 was over 100 µM.

What about the IC50 (HIV [2]) of the same compound?
The IC50 was 48 µM.

For O=c1n([C@@H]2CO[C@@H](CO)O2)cc(F)c2nc(-c3ccc([N+](=O)[O-])cc3)cn12 [Compound 58], which CC50 [1] is on record?
The CC50 was over 100 µM.

What about the CC50 [3] of the same compound?
Its CC50 is over 100 µM.

And the IC50 (HIV-1)?
Its IC50 is 60 µM.

What about the IC50 (HIV [2]) of the same compound?
Its IC50 is 60 µM.

Which IC50 (HIV [6]) does the source give for CC(C)[C@H](N)C(=O)OCC1OC[C@H](n2ccc3nc(-c4ccc(F)cc4)cn3c2=O)O1 (some centres unmarked) [Compound 60, 2-AMINO-3-METHYL-BUTYRIC ACID 4-[2- (4-FLUORO-PHENYL)-5-OXO-IMIDAZO [1,2-C]PYRIMIDIN-6-YL]-[1,3]DIOXOLAN-2- YLMETHYL ESTER; HYDROCHLORIDE SALT] here?
Its IC50 is 0.6 µM.

And the CC50 (Cytotoxicity in PBMCs)?
Its CC50 is over 10 µM.

Which results are given for O=c1n([C@H]2CO[C@@H](CO)O2)ccc2nc(-c3ccccc3)cn12 [Compound 62, 6-(2-HYDROXYMETHYL-[1,3]DIOXOLAN- 4-YL)-2-PHENYL-6H-IMIDAZO[1,2-C]PYRIMIDIN-5-ONE]?
IC50 (HIV [6]; PBMCs): 8 µM; CC50 (Cytotoxicity in PBMCs; [9]): > 10 µM

Reference: patent US20020061896A1, “Imidazopyrimidine nucleoside analogues with anti-HIV activity” (priority 1999, published 2002)
